Laboratory results: patent US20250353891A1 (MEDIMMUNE LIMITED, priority 2022, published 2025)
Starred links: 1 amine or outer side, 2 acyl side, 3 side chain; linkers in the order of their positions; H or OH if unused. Non-standard residues stand in square brackets, D forms with d. Residues, ends and D or L forms follow the SMILES beside them. Groups on a side chain read outwards from the residue. *: point of attachment. C18 diacid = O=C(O)CCCCCCCCCCCCCCCCC(=O)*; γGlu = O=C(O)[C@H](CCC(=O)[*:2])N[*:1]; αMeF = C[C@](N)(Cc1ccccc1)C(=O)O; AEEA = NCCOCCOCC(=O)O; Aib = CC(C)(N)C(=O)O

Experiments:
[1] = target: human GLP-1 receptor (hGLP-1R) (Homo sapiens, UniProt P43220); test: cAMP production (HTRF) in CHO cells expressing hGLP-1R; format: cell-based; set-up: expressed in transfected cells; details: for EC50: Table 6, peptides modified at position 17, cAMP in CHO hGLP-1R cells, geometric mean, read-out: hGLP-1R EC50; for % Relative Potency Ratio: Table 6, % GLP-1R activity relative to GLP-1 / % GlucR activity relative to glucagon
Chain of human GLP-1 receptor (hGLP-1R) (P43220 24-463): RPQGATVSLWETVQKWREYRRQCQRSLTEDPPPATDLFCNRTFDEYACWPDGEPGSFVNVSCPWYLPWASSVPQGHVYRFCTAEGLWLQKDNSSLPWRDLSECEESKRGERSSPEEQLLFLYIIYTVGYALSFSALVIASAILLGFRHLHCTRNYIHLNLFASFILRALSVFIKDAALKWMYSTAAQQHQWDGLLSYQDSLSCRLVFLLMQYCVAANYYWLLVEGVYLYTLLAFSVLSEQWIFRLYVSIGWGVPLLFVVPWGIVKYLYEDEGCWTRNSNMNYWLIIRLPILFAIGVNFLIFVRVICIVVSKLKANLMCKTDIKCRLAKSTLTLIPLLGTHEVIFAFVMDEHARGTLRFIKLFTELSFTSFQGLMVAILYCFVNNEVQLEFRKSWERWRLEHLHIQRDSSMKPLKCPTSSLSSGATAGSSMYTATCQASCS
How it was run: (§1)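 Read-out: HTRF cAMP (anti-cAMP cryptate donor, cAMP-d2 acceptor in conjugate/lysis buffer), converted to % Delta F and fitted by 4-parameter logistic for EC50. Cell densities were 1×10^5 cells/mL (hGLP-1R) or 2×10^5 cells/mL (hGCGR). Stimulation lasted 30 min at room temperature.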

[2] = target: human glucagon receptor (hGCGR) (Homo sapiens, UniProt P47871); test: cAMP production (HTRF) in CHO cells expressing hGCGR; format: cell-based; set-up: expressed in transfected cells; details: Table 6, peptides modified at position 17; cAMP in CHO hGCGR cells; geometric mean; read-out: hGluc-R EC50
Chain of human glucagon receptor (hGCGR) (P47871 26-477): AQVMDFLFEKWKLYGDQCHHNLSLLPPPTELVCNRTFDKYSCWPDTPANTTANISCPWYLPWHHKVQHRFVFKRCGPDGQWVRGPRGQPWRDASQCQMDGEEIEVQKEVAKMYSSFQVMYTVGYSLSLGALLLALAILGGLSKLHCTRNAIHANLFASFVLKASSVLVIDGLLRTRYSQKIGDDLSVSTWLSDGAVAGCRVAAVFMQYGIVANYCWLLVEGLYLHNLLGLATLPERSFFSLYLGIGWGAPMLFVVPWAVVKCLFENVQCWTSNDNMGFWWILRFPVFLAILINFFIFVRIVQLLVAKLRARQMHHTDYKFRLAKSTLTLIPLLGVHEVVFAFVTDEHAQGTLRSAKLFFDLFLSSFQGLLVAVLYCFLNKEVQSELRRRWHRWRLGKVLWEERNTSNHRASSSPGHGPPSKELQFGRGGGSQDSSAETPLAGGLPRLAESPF
How it was run: as §1

| EC50 [1] [nM] | % Relative Potency Ratio [1] | EC50 [2] [nM] | SMILES |
| --- | --- | --- | --- |
| 0.048 | 11.1 | 0.27 | CC(C)C[C@H](NC(=O)[C@H](Cc1c[nH]c2ccccc12)NC(=O)[C@H](CCCNC(=N)N)NC(=O)[C@@H](NC(=O)[C@H](Cc1ccccc1)NC(=O)[C@H](CC(=O)O)NC(=O)[C@H](CCCNC(=N)N)NC(=O)[C@H](C)NC(=O)[C@H](CCCNC(=N)N)NC(=O)[C@H](CCCCNC(=O)COCCOCCNC(=O)COCCOCCNC(=O)CC[C@H](NC(=O)CCCCCCCCCCCCCCCCC(=O)O)C(=O)O)NC(=O)[C@H](CO)NC(=O)[C@H](CC(=O)O)NC(=O)[C@H](CC(C)C)NC(=O)[C@](C)(Cc1ccccc1)NC(=O)[C@H](CCCCN)NC(=O)[C@H](CO)NC(=O)[C@@H](NC(=O)[C@H](CC(=O)O)NC(=O)[C@H](CO)NC(=O)[C@@H](NC(=O)[C@H](Cc1ccccc1)NC(=O)[C@@H](NC(=O)CNC(=O)[C@H](CCC(N)=O)NC(=O)C(C)(C)NC(=O)[C@@H](N)Cc1c[nH]cn1)[C@@H](C)O)[C@@H](C)O)C(C)C)C(C)C)C(=O)N[C@@H](CC(C)C)C(=O)NC(C)(C)C(=O)N[C@H](C(=O)N[C@@H](CCC(=O)O)C(=O)O)[C@@H](C)O [Peptide 166] (H-H[Aib]QGTFTSDVSK[αMeF]LDSK([AEEA-AEEA-γGlu-C18 diacid])RARDFVRWLL[Aib]TE-OH; N-terminus assumed) |
| 0.0768 | 8.0 | 0.311 | CC(C)C[C@H](NC(=O)[C@H](Cc1c[nH]c2ccccc12)NC(=O)[C@H](C)NC(=O)[C@@H](NC(=O)[C@H](Cc1ccccc1)NC(=O)[C@H](CC(=O)O)NC(=O)[C@H](CCCNC(=N)N)NC(=O)[C@H](C)NC(=O)[C@H](CCCNC(=N)N)NC(=O)[C@H](CCCCNC(=O)COCCOCCNC(=O)COCCOCCNC(=O)CC[C@H](NC(=O)CCCCCCCCCCCCCCCCC(=O)O)C(=O)O)NC(=O)[C@H](CO)NC(=O)[C@H](CC(=O)O)NC(=O)[C@H](CC(C)C)NC(=O)[C@](C)(Cc1ccccc1)NC(=O)[C@H](CCCCN)NC(=O)[C@H](CO)NC(=O)[C@@H](NC(=O)[C@H](CC(=O)O)NC(=O)[C@H](CO)NC(=O)[C@@H](NC(=O)[C@H](Cc1ccccc1)NC(=O)[C@@H](NC(=O)CNC(=O)[C@H](CCC(N)=O)NC(=O)C(C)(C)NC(=O)[C@@H](N)Cc1c[nH]cn1)[C@@H](C)O)[C@@H](C)O)C(C)C)C(C)C)C(=O)N[C@@H](CC(C)C)C(=O)NC(C)(C)C(=O)N[C@H](C(=O)N[C@@H](CCC(=O)O)C(=O)O)[C@@H](C)O [Peptide 167] (H-H[Aib]QGTFTSDVSK[αMeF]LDSK([AEEA-AEEA-γGlu-C18 diacid])RARDFVAWLL[Aib]TE-OH; N-terminus assumed) |
| 0.448 | 3.9 | 0.886 | CC(C)C[C@H](NC(=O)[C@H](C)NC(=O)[C@H](CCCNC(=N)N)NC(=O)[C@H](CCCCNC(=O)COCCOCCNC(=O)COCCOCCNC(=O)CC[C@H](NC(=O)CCCCCCCCCCCCCCCCC(=O)O)C(=O)O)NC(=O)[C@H](CO)NC(=O)[C@H](CC(=O)O)NC(=O)[C@H](CC(C)C)NC(=O)[C@](C)(Cc1ccccc1)NC(=O)[C@H](CCCCN)NC(=O)[C@H](CO)NC(=O)[C@@H](NC(=O)[C@H](CC(=O)O)NC(=O)[C@H](CO)NC(=O)[C@@H](NC(=O)[C@H](Cc1ccccc1)NC(=O)[C@@H](NC(=O)CNC(=O)[C@H](CCC(N)=O)NC(=O)C(C)(C)NC(=O)[C@@H](N)Cc1c[nH]cn1)[C@@H](C)O)[C@@H](C)O)C(C)C)C(=O)N[C@@H](CC(=O)O)C(=O)N[C@@H](Cc1ccccc1)C(=O)N[C@H](C(=O)N[C@@H](CCCNC(=N)N)C(=O)N[C@@H](Cc1c[nH]c2ccccc12)C(=O)N[C@@H](CC(C)C)C(=O)N[C@@H](CC(C)C)C(=O)NC(C)(C)C(=O)N[C@H](C(=O)N[C@@H](CCC(=O)O)C(=O)O)[C@@H](C)O)C(C)C [Peptide 168] (H-H[Aib]QGTFTSDVSK[αMeF]LDSK([AEEA-AEEA-γGlu-C18 diacid])RALDFVRWLL[Aib]TE-OH; N-terminus assumed) |

The next lines start with the compound.

| SMILES | EC50 [1] [nM] | % Relative Potency Ratio [1] | EC50 [2] [nM] |
| --- | --- | --- | --- |
| CC(C)C[C@H](NC(=O)[C@H](Cc1c[nH]c2ccccc12)NC(=O)[C@H](CCCNC(=N)N)NC(=O)[C@@H](NC(=O)[C@H](Cc1ccccc1)NC(=O)[C@H](CC(=O)O)NC(=O)[C@H](CCC(N)=O)NC(=O)[C@H](C)NC(=O)[C@H](CCCNC(=N)N)NC(=O)[C@H](CCCCNC(=O)COCCOCCNC(=O)COCCOCCNC(=O)CC[C@H](NC(=O)CCCCCCCCCCCCCCCCC(=O)O)C(=O)O)NC(=O)[C@H](CO)NC(=O)[C@H](CC(=O)O)NC(=O)[C@H](CC(C)C)NC(=O)[C@](C)(Cc1ccccc1)NC(=O)[C@H](CCCCN)NC(=O)[C@H](CO)NC(=O)[C@@H](NC(=O)[C@H](CC(=O)O)NC(=O)[C@H](CO)NC(=O)[C@@H](NC(=O)[C@H](Cc1ccccc1)NC(=O)[C@@H](NC(=O)CNC(=O)[C@H](CCC(N)=O)NC(=O)C(C)(C)NC(=O)[C@@H](N)Cc1c[nH]cn1)[C@@H](C)O)[C@@H](C)O)C(C)C)C(C)C)C(=O)N[C@@H](CC(C)C)C(=O)N[C@@H](CCC(=O)O)C(=O)NC(C)(C)C(=O)N[C@@H](C)C(=O)O [Peptide 163] (H-H[Aib]QGTFTSDVSK[αMeF]LDSK([AEEA-AEEA-γGlu-C18 diacid])RAQDFVRWLLE[Aib]A-OH; N-terminus assumed) | 0.0902 | 3.2 | 0.144 |
| CC(C)C[C@H](NC(=O)[C@H](Cc1c[nH]c2ccccc12)NC(=O)[C@H](CCCNC(=N)N)NC(=O)[C@@H](NC(=O)[C@H](Cc1ccccc1)NC(=O)[C@H](CC(=O)O)NC(=O)[C@H](CCC(N)=O)NC(=O)[C@H](C)NC(=O)[C@H](CCCNC(=N)N)NC(=O)[C@H](CCCCNC(=O)COCCOCCNC(=O)COCCOCCNC(=O)CC[C@H](NC(=O)CCCCCCCCCCCCCCCCC(=O)O)C(=O)O)NC(=O)[C@H](CO)NC(=O)[C@H](CC(=O)O)NC(=O)[C@H](CC(C)C)NC(=O)[C@](C)(Cc1ccccc1)NC(=O)[C@H](CCCCN)NC(=O)[C@H](CO)NC(=O)[C@@H](NC(=O)[C@H](CC(=O)O)NC(=O)[C@H](CO)NC(=O)[C@@H](NC(=O)[C@H](Cc1ccccc1)NC(=O)[C@@H](NC(=O)CNC(=O)[C@H](CCC(N)=O)NC(=O)C(C)(C)NC(=O)[C@@H](N)Cc1c[nH]cn1)[C@@H](C)O)[C@@H](C)O)C(C)C)C(C)C)C(=O)N[C@H](C(=O)NC(C)(C)C(=O)N[C@H](C(=O)N[C@@H](CCC(=O)O)C(=O)O)[C@@H](C)O)C(C)C [Peptide 165] (H-H[Aib]QGTFTSDVSK[αMeF]LDSK([AEEA-AEEA-γGlu-C18 diacid])RAQDFVRWLV[Aib]TE-OH; N-terminus assumed) | 0.0509 | 40.0 | 1.03 |
